Tests used:
JAK2 = JAK2 (Homo sapiens (Human), UniProt O60674); assay: JAK2 radioactive kinase assay; assay type: biochemical; conditions: ATP 10 μM
In short: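 Radiometric assay in Hepes pH 7.5, MgCl2, EGTA, Brij35, BSA, DTT, 1% DMSO, with 10 μM [33P]ATP, 120 min at room temp; P81 paper capture and counting. […]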

[1] = system: Tyk2-pSTAT4 (IL-12 induced pSTAT4); assay: IL-12 induced pSTAT4 in human PBMC; assay type: cell-based; conditions: 1.7 ng/mL IL-12, 30 minutes
In short: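 pSTAT4 and total STAT4 quantified by MSD in cell lysates after 30 minutes of 1.7 ng/mL IL-12 stimulation. Beforehand, compound (0.1% DMSO final) sat 1 hr at 37 C on 200,000 thawed buffy-coat PBMC per well in serum-containing medium.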

TYK2 = TYK2 (Homo sapiens (Human), UniProt P29597); assay: Tyk2 radioactive kinase assay; assay type: biochemical; conditions: ATP 10 μM
In short: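 Recombinant human TYK2 (Invitrogen) was mixed with 20 μM peptide substrate in a buffer of 20 mM Hepes pH 7.5, 10 mM MgCl2, 1 mM EGTA, 0.02% Brij35, 0.02 mg/mL BSA, 0.1 mM […], 2 mM DTT and 1% DMSO, and compounds in DMSO were added. Adding ^33P-ATP (10 μM ATP) started the reaction, which ran 120 min at room temperature. Mixtures were then spotted onto P81 ion-exchange paper, washed thoroughly in 0.75% phosphoric acid, and counted for radioactivity.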

[2] = system: JAK2-pSTAT5 (GM-CSF induced pSTAT5); assay: GM-CSF induced pSTAT5 in human PBMC; assay type: cell-based; conditions: Homo sapiens, PBMC, 20 min, 5 ng/mL GM-CSF
Description: Human PBMC are isolated from buffy coat and are stored frozen for assays as needed. Cells for assay are thawed and resuspended in complete media containing serum, then cells are diluted to 1.67 E6 cells/ml so that 120 ul per well is 200,000 cells. 15 ul of compound or DMSO is added to the well at the desired concentrations and incubated at 1 hr at 37 C. 15 ul of stimulus (final concentration of 1.7 ng/mL IL-12) is added for 30 minutes prior to pSTAT4 and total STAT4 analysis using cell lysates prepared and analyzed by MSD reagents as per manufacturer protocol. The final DMSO concentration of compound in the assay is 0.1%.
Cells are prepared for analysis as in the above procedure and 15 ul of GM-CSF (final concentration 5 ng/mL) is added for 20 minutes prior to pSTAT5 and total STAT5 analysis using cell lysates prepared and analyzed by MSD reagents as per manufacturer protocol. The final DMSO concentration of compound in the assay is 0.1%.

JAK2, sequence (O60674 whole entry): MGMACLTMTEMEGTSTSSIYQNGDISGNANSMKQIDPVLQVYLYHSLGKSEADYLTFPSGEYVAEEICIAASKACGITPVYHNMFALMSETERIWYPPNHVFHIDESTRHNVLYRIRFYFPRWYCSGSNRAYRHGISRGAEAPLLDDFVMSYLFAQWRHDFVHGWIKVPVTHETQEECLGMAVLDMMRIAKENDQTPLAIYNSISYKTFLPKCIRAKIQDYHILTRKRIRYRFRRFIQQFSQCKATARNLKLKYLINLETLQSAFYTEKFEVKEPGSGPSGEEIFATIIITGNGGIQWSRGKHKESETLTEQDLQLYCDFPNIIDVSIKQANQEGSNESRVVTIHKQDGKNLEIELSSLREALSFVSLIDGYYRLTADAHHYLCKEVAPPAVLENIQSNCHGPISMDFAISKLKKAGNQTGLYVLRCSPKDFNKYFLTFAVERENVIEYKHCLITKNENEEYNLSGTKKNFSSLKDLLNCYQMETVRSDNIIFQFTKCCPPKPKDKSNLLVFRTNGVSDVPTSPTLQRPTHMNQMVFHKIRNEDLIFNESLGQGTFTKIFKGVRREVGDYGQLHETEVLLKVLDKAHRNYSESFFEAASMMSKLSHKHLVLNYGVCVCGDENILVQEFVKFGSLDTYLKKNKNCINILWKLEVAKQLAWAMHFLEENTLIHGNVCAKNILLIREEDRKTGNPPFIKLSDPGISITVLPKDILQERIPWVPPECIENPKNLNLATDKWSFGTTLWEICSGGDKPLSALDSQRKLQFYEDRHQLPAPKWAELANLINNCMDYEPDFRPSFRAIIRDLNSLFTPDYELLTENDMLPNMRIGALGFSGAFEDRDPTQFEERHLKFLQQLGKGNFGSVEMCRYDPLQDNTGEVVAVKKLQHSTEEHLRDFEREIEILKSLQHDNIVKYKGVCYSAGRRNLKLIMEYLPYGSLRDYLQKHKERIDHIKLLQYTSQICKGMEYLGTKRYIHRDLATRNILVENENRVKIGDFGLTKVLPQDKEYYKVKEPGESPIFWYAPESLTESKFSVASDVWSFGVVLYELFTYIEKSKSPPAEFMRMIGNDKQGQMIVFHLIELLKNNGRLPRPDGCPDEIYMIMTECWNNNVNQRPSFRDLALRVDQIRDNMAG
TYK2, sequence (P29597 whole entry): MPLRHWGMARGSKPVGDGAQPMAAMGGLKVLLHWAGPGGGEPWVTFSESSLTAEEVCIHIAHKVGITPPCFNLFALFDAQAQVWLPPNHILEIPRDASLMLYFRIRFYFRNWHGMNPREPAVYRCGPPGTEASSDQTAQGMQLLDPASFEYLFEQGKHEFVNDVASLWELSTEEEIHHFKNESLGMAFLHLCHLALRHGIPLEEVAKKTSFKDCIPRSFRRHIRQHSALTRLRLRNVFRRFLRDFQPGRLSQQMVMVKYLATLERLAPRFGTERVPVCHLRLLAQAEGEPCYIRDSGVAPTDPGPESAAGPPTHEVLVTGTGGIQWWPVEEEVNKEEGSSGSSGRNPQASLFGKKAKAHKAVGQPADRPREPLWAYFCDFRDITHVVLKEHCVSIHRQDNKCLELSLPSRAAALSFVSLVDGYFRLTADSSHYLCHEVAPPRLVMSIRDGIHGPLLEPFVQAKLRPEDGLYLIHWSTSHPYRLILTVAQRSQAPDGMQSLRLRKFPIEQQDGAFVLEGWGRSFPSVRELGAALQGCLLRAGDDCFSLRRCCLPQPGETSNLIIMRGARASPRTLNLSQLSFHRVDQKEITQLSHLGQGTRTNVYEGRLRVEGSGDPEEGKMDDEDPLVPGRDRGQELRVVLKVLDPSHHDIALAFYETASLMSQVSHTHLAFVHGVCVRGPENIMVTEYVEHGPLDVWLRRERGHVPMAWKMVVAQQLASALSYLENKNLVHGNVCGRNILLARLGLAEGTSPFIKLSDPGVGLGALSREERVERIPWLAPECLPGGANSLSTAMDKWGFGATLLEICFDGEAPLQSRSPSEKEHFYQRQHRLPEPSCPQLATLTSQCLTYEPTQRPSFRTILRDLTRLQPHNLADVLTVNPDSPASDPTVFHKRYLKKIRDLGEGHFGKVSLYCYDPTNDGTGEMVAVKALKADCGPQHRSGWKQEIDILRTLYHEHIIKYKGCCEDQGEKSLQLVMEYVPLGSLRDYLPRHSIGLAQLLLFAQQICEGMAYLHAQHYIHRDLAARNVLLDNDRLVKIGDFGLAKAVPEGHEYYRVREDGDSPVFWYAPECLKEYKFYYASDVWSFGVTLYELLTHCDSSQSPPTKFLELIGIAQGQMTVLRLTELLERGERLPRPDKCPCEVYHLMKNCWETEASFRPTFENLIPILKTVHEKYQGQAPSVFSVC

C[C@@H]1CC(O)C[C@H](C)N1c1ccn(-c2cc(-c3c(F)cccc3C#N)nc3c2C(=O)NC3)n1 (stereo partly drawn) [I-107, 3-fluoro-2-(4-(3-((2S,6R)-4-hydroxy-2,6-dimethylpiperidin-1-yl)-1H-pyrazol-1-yl)-5-oxo-6,7-dihydro-5H-pyrrolo[3,4-b]pyridin-2-yl)benzonitrile]
Ki (JAK2): 100 to 1000 nM
EC50 ([1]; Homo sapiens, PBMC, 0.5 h): 100 to 2000 nM
Ki (TYK2): 10 to 100 nM
EC50 [2]: 100 to 2000 nM

CO[C@H]1CN(c2ccn(-c3cc(-c4c(F)cccc4C#N)nc4c3C(=O)NC4)n2)CC[C@@H]1O [I-202, 3-fluoro-2-(4-(3-((3S,4S)-4-hydroxy-3-methoxypiperidin-1-yl)-1H-pyrazol-1-yl)-5-oxo-6,7-dihydro-5H-pyrrolo[3,4-b]pyridin-2-yl)benzonitrile]
Ki (JAK2): 10 to 100 nM
EC50 ([1]; Homo sapiens, PBMC, 0.5 h): 30 to 100 nM
Ki (TYK2): 0.1 to 10 nM
EC50 [2]: 100 to 2000 nM

[2H]C1([2H])N(c2ccn(-c3cc(-c4c(F)cccc4C#N)nc4c3C(=O)NC4)n2)C([2H])([2H])[C@@]([2H])(O)C1([2H])[2H] [I-209, (S)-3-fluoro-2-(4-(3-(3-hydroxypyrrolidin-1-yl-2,2,3,4,4,5,5-d7)-1H-pyrazol-1-yl)-5-oxo-6,7-dihydro-5H-pyrrolo[3,4-b]pyridin-2-yl)benzonitrile]
Ki (JAK2): 10 to 100 nM
EC50 ([1]; Homo sapiens, PBMC, 0.5 h): 100 to 2000 nM
Ki (TYK2): 0.1 to 10 nM
EC50 [2]: > 2000 nM

N#Cc1cccc(F)c1-c1cc(-n2ccc(N3CC[C@@H](O)C3)n2)c2c(n1)CNC2=O [I-78, (R)-3-fluoro-2-(4-(3-(3-hydroxypyrrolidin-1-yl)-1H-pyrazol-1-yl)-5-oxo-6,7-dihydro-5H-pyrrolo[3,4-b]pyridin-2-yl)benzonitrile]
Ki (JAK2): 10 to 100 nM
EC50 ([1]; Homo sapiens, PBMC, 0.5 h): 30 to 100 nM
Ki (TYK2): 0.1 to 10 nM
EC50 [2]: 100 to 2000 nM

[2H]C1([2H])NC(=O)c2c(-n3ccc(N4C([2H])([2H])CC(O)(C([2H])([2H])[2H])C4([2H])[2H])n3)cc(-c3c(F)cccc3C#N)nc21 (centres unmarked) [I-200, 3-fluoro-2-(4-(3-(3-hydroxy-3-(methyl-d3)pyrrolidin-1-yl-2,2,5,5-d4)-1H-pyrazol-1-yl)-5-oxo-6,7-dihydro-5H-pyrrolo[3,4-b]pyridin-2-yl-7,7-d2)benzonitrile]
Ki (JAK2): 10 to 100 nM
EC50 ([1]; Homo sapiens, PBMC, 0.5 h): 30 to 100 nM
Ki (TYK2): 0.1 to 10 nM
EC50 [2]: 100 to 2000 nM

CC(=O)N[C@@H]1CCCN(c2ccn(-c3cc(-c4c(F)cccc4C#N)nc4c3C(=O)NC4)n2)C1 [I-129, (R)-N-(1-(1-(2-(2-cyano-6-fluorophenyl)-5-oxo-6,7-dihydro-5H-pyrrolo[3,4-b]pyridin-4-yl)-1H-pyrazol-3-yl)piperidin-3-yl)acetamide]
Ki (JAK2): 10 to 100 nM
EC50 ([1]; Homo sapiens, PBMC, 0.5 h): 100 to 2000 nM
Ki (TYK2): 0.1 to 10 nM
EC50 [2]: > 2000 nM

C[C@]1(O)CN(c2ccn(-c3cc(-c4c(F)cccc4C#N)nc4c3C(=O)NC4)n2)CC[C@H]1O [I-162, 2-(4-(3-((3S,4R)-3,4-dihydroxy-3-methylpiperidin-1-yl)-1H-pyrazol-1-yl)-5-oxo-6,7-dihydro-5H-pyrrolo[3,4-b]pyridin-2-yl)-3-fluorobenzonitrile]
Ki (JAK2): 0.1 to 10 nM
EC50 ([1]; Homo sapiens, PBMC, 0.5 h): 100 to 2000 nM
Ki (TYK2): 0.009 to 0.1 nM
EC50 [2]: 100 to 2000 nM

N#Cc1cccc(F)c1-c1cc(-n2ccc(N3CC[C@H](C#N)[C@@H](O)C3)n2)c2c(n1)CNC2=O [I-215, (3R,4R)-1-(1-(2-(2-cyano-6-fluorophenyl)-5-oxo-6,7-dihydro-5H-pyrrolo[3,4-b]pyridin-4-yl)-1H-pyrazol-3-yl)-3-hydroxypiperidine-4-carbonitrile]
Ki (JAK2): 10 to 100 nM
EC50 [1]: 100 to 2000 nM
Ki (TYK2): 0.1 to 10 nM
EC50 [2]: 100 to 2000 nM

[2H]C([2H])([2H])O[C@H]1CN(c2ccn(-c3cc(-c4c(F)cccc4C#N)nc4c3C(=O)NC4)n2)C[C@H]1O [I-224, 3-fluoro-2-(4-(3-((3R,4S)-3-hydroxy-4-(methoxy-d3)pyrrolidin-1-yl)-1H-pyrazol-1-yl)-5-oxo-6,7-dihydro-5H-pyrrolo[3,4-b]pyridin-2-yl)benzonitrile]
Ki (JAK2): 10 to 100 nM
EC50 ([1]; Homo sapiens, PBMC, 0.5 h): 30 to 100 nM
Ki (TYK2): 0.1 to 10 nM
EC50 [2]: 100 to 2000 nM

N#Cc1cccc(F)c1-c1cc(-n2ccc(N3CCC[C@H](C(N)=O)C3)n2)c2c(n1)CNC2=O [I-126, (S)-1-(1-(2-(2-cyano-6-fluorophenyl)-5-oxo-6,7-dihydro-5H-pyrrolo[3,4-b]pyridin-4-yl)-1H-pyrazol-3-yl)piperidine-3-carboxamide]
Ki (JAK2): 10 to 100 nM
EC50 ([1]; Homo sapiens, PBMC, 0.5 h): 100 to 2000 nM
Ki (TYK2): 0.1 to 10 nM
EC50 [2]: 100 to 2000 nM

N#Cc1cccc(F)c1-c1cc(-n2ccc(N3CCC(O)CC3)n2)c2c(n1)CNC2=O [I-56, 3-fluoro-2-(4-(3-(4-hydroxypiperidin-1-yl)-1H-pyrazol-1-yl)-5-oxo-6,7-dihydro-5H-pyrrolo[3,4-b]pyridin-2-yl)benzonitrile]
Ki (JAK2): 10 to 100 nM
EC50 ([1]; Homo sapiens, PBMC, 0.5 h): 100 to 2000 nM
Ki (TYK2): 0.1 to 10 nM
EC50 [2]: 100 to 2000 nM

N#Cc1cccc(F)c1-c1cc(-n2ccc(N3CCC[C@@H](C(N)=O)C3)n2)c2c(n1)CNC2=O [I-125, (R)-1-(1-(2-(2-cyano-6-fluorophenyl)-5-oxo-6,7-dihydro-5H-pyrrolo[3,4-b]pyridin-4-yl)-1H-pyrazol-3-yl)piperidine-3-carboxamide]
Ki (JAK2): 10 to 100 nM
EC50 ([1]; Homo sapiens, PBMC, 0.5 h): 100 to 2000 nM
Ki (TYK2): 0.1 to 10 nM
EC50 [2]: 100 to 2000 nM

[2H]C1([2H])NC(=O)c2c(-n3ccc(N4CCC[C@@](C)(O)C4)n3)cc(-c3c(F)cccc3C#N)nc21 [I-111, (R)-3-fluoro-2-(4-(3-(3-hydroxy-3-methylpiperidin-1-yl)-1H-pyrazol-1-yl)-5-oxo-6,7-dihydro-5H-pyrrolo[3,4-b]pyridin-2-yl-7,7-d2)benzonitrile]
Ki (JAK2): 10 to 100 nM
EC50 ([1]; Homo sapiens, PBMC, 0.5 h): 30 to 100 nM
Ki (TYK2): 0.1 to 10 nM
EC50 [2]: 100 to 2000 nM

N#Cc1cccc(F)c1-c1cc(-n2ccc(N3CCCC(N4CCOCC4)C3)n2)c2c(n1)CNC2=O (centres unmarked) [I-149, 3-fluoro-2-(4-(3-(3-morpholinopiperidin-1-yl)-1H-pyrazol-1-yl)-5-oxo-6,7-dihydro-5H-pyrrolo[3,4-b]pyridin-2-yl)benzonitrile]
Ki (JAK2): 0.1 to 10 nM
EC50 ([1]; Homo sapiens, PBMC, 0.5 h): 100 to 2000 nM
Ki (TYK2): 0.009 to 0.1 nM
EC50 [2]: 100 to 2000 nM

N#Cc1cccc(F)c1-c1cc(-n2ccc(N3CCOCC(O)C3)n2)c2c(n1)CNC2=O (centres unmarked) [I-121, 3-fluoro-2-(4-(3-(6-hydroxy-1,4-oxazepan-4-yl)-1H-pyrazol-1-yl)-5-oxo-6,7-dihydro-5H-pyrrolo[3,4-b]pyridin-2-yl)benzonitrile]
Ki (JAK2): 10 to 100 nM
EC50 ([1]; Homo sapiens, PBMC, 0.5 h): 30 to 100 nM
Ki (TYK2): 0.1 to 10 nM
EC50 [2]: > 2000 nM

CC(=O)Nc1cnn(-c2cc(-c3c(F)cccc3C#N)nc3c2C(=O)NC3)c1 [I-177, N-(1-(2-(2-cyano-6-fluorophenyl)-5-oxo-6,7-dihydro-5H-pyrrolo[3,4-b]pyridin-4-yl)-1H-pyrazol-4-yl)acetamide]
Ki (JAK2): ≥ 1000 nM
EC50 ([1]; Homo sapiens, PBMC, 0.5 h): > 2000 nM
Ki (TYK2): ≥ 1000 nM
EC50 [2]: 100 to 2000 nM

[2H]C1([2H])N(c2ccn(-c3cc(-c4c(F)cccc4C#N)nc4c3C(=O)NC4)n2)C([2H])([2H])[C@](C)(O)C([2H])([2H])C1([2H])[2H] [I-220, (R)-3-fluoro-2-(4-(3-(3-hydroxy-3-methylpiperidin-1-yl-2,2,4,4,5,5,6,6-d8)-1H-pyrazol-1-yl)-5-oxo-6,7-dihydro-5H-pyrrolo[3,4-b]pyridin-2-yl)benzonitrile]
Ki (JAK2): 10 to 100 nM
EC50 ([1]; Homo sapiens, PBMC, 0.5 h): 100 to 2000 nM
Ki (TYK2): 0.1 to 10 nM
EC50 [2]: > 2000 nM

From US10781204B2, “TYK2 inhibitors and uses thereof” (Nimbus Lakshmi, Inc., priority 2015, dated 2020)
